Results published in paper PMC2607018, “Iodine Atoms: A New Molecular Feature for the Design of Potent Transthyretin Fibrillogenesis Inhibitors” (PLoS ONE, 2009).
Read-outs that look alike come from different tables or passages of the source.

Assays:
TTRwt = TTRwt (Homo sapiens, UniProt P02766); test: Tetramer dissociation in 6M urea monitored by far-UV circular dichroism; format: biochemical; settings: TTRwt 3.6 µM, inhibitor 7.2 µM, 25 °C
Description: (§1) The stabilizing effect of iodine atoms on the tetrameric form of both TTRwt and TTRY78F has been further evaluted on urea induced dissociation experiments by comparing the performance of iododiflunisal versus diflunisal. Thus, after allowing maximum stabilization of the tetrameric forms of both TTR wild type and Y78F mutant proteins by formation of TTR/inhibitor complexes of (1:2) stoichiometry, measures of circular dichroism in the far-UV of changes in the secondary structure of TTR were recorded as a function of time in 6M urea solutions. It has been assumed that the rate of tetramer dissociation is irreversibly associated to fast monomer unfolding when employing urea concentrations exceeding those that may enable monomer refolding.
(§2) It is known that the dissociation of the tetrameric form of TTRwt takes an average of 42 h and the resulting monomers quickly unfold 500.000 times faster. Therefore the rate of dissociation can be estimated by lining it to unfolding which is irreversible in 6M urea. Thus, owing that the tetramer dissociation is the rate limiting step for fibrilogenesis and assuming the kinetic stabilizing mechanism of inhibition, good inhibitors should slow tetramer dissociation.
(§3) Although slow tetramer dissociation is not detectable by far-UV CD spectroscopy, this technique is very much suitable at monitoring the much faster unfolding step.The CD spectra of TTR corresponds to a typical β-sheet reach protein with a Cotton effect centered at 210 nm and a shoulder at 217 nm. This band gradually looses intensity as protein denaturation advances, therefore meaningful changes in the β-sheet content of the protein are normally recorded in the region of 210–250 nm. Below this region (190–210 nm) other interesting structural changes are masked by the high concentrations of urea required for denaturation. Results are here presented in unfolded fraction units which are calculated from each spectra assuming than at time zero the elipticity recorded corresponds to the fully folded protein while at 200 h this parameter agrees with a totally unfolded state.
(§4) Both proteins were incubated in buffered solutions of 6M urea in the presence and absence of 1:2 ratios of protein to inhibitor and far-UV CD spectra ([…]) were intermitently recorded for a period of 200 hours. […]
(§5) Protein stock solutions of wtTTR and TTRY78F of 1 mg/ml of protein in 50 mM of sodium phosphate buffer, 1mM EDTA, pH 7.0 were also prepared from mother solutions of both proteins containing 4 mg/mL (72.7 µM) of wtTTR and 3 mg/mL (55.5 µM) of TTRY78F that were determined by spectrophotometrical methods. […] The samples were incubated over a period of 200 hours at 25 °C and far-UV CD spectra (210-250 nm) were periodically recorded in a JASCO 600 instrument. […]

TTRY78F [1] = target: T1, TTRY78F (Homo sapiens, UniProt P02766, Y98F); test: as above; format: biochemical; settings: TTRY78F 3.6 µM, inhibitor 7.2 µM, 25 °C
Description: as §1, §2, §3, §4, §5

[2] = test system: TTRV30M transgenic mice strain; test: Preclinical animal study, 3 months; format: in vivo; settings: 2.8 mg per day during 3 months
Experimental: (§6) To gain further insight on the therapeutic potential of these iodinated TTR fibrillogenesis inhibitors, in vitro binding tests of idodiflunisal to thyroid hormone receptors alfa and beta were carried out (data not shown). […] This has been further confirmed by preclinical animal studies using a TTRV30M transgenic mice strain receiving 2.8 mg of iododiflunisal per day during 3 months. […] However, further preclinical tests are needed to validate these compounds as potential drugs for TTR related amyloidosis.

TTRY78F [3] = target: T1, TTRY78F; parameters: method as in PMID 15080795; settings: 1:2 proportion of TTRY78F/inhibitor; cited from earlier work
[4] = test system: natural TTR tetramers occurring in blood plasma of control and FAP patients; parameters: method as in PMID 15080795; settings: cited from earlier work
[5] = target: T2, thyroid hormone receptor beta (Homo sapiens, UniProt P10828); test: In vitro binding test to thyroid hormone receptors; settings: data not shown
T2 sequence (P10828 1-461): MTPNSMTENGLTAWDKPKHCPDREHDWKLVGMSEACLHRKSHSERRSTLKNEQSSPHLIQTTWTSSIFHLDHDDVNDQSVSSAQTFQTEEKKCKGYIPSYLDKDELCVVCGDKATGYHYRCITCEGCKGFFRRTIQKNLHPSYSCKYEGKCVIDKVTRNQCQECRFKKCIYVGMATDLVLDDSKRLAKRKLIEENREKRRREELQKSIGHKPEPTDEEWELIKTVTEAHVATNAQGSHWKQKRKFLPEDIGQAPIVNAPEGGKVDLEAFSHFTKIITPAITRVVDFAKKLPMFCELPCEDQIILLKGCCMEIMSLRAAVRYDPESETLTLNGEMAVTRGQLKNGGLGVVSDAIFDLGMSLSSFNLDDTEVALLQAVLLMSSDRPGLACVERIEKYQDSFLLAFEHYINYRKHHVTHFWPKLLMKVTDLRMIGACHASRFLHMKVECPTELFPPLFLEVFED
Experimental: as §6

[6] = test system: thyroid hormone receptor alfa; test: In vitro binding test to thyroid hormone receptors; settings: data not shown
Experimental: as §6

[7] = target: T3, recombinant wild type TTR (Homo sapiens, UniProt P02766); test: T4 competition assay (125I-T4, gel filtration); format: binding; settings: for affinity for TTR relative to T4, in words: from T4 displacement
T3 construct: made in house; host or cells: E. coli
Description: To evaluate the relative binding affinity of the compounds for TTR an already described procedure was followed.

TTR variant Y78F = TTR variant Y78F (Homo sapiens, UniProt P02766, Y98F); test: Kinetic turbidity assay of acid induced fibril formation; format: biochemical
Description: Two different parameters can be derived from this kinetic test. The IC50 value is the inhibitor concentration at which the initial rate of fibril formation is half than that in the absence of inhibitor. In turn, RA (%) can be defined as the percent reduction of fibril formation rate at high inhibitor concentration relative to the rate at zero concentration of tested compound.
An in vitro turbidimetric test in a high troughput mode was used to assess the fibrillogenesis inhibition potency of the compounds of the library. The mutant protein TTRY78F was incubated with various concentrations of test compounds in 96 well microplates. After lowering the pH of the solutions to 4.2, the incubation was extended for 1.5 h while recording the absorbance at 340 nm at 1 min intervals. […] (Figure S1).
The mutant Y78F TTR protein (0.4 mg.mL^-1) was incubated for 30 min (pH 7.6, 37 °C) with 6 concentrations of test compounds ranging from 0 to 40 µM in 96-well microplates.
IC50% value is the inhibitor concentration at which the initial rate of fibril formation is half of that in the absence of inhibitor. RA(%) is the percentage of reduction in fibril formation rate induced by a given concentration of test compound relative to the rate of experiments at zero concentration of test compound.

[8] = inhibitor concentration at which the initial rate of fibril formation is half, Y78F TTR 0.4 mg/mL, pH 4.2, 37 °C, read-out: Kinetic turbidity assay IC50

Structure (SMILES): O=C(O)c1cc(-c2ccc(F)cc2F)cc(I)c1O [1b, 2’,4’-difluoro-4-hydroxy-5-iodo-[1,1’]-biphenyl-3-carboxylic acid]
- protein denaturation (unfolding) after 200 h (TTRwt): 30%
- protein denaturation (tetramer dissociation) after 200 h (TTRY78F [1]): 30%
- metabolic disfunctions [2]: did not show significant metabolic disfunctions
- aggregates seen by TEM (TTRY78F [3]): completely prevented
- stabilizing effect on TTR tetramers [4]: more potent stabilizing effect
- binding constants [5]: almost negligible
- binding constants [6]: almost negligible

Structure (SMILES): O=C(O)CCNC(=O)c1cc(-c2ccc(F)cc2F)cc(I)c1O [22b, N-[2’-,4’-difluoro-4-hydroxy-5-iodo-[1,1’]-biphenyl-3-carbonyl]-β-alanine]
- affinity for TTR relative to T4, in words [7]: equal affinity for TTR than T4
- T4 Displacement EC50(T4)/EC50(I) ([7]; wild type TTR 30 nM, 125I-T4, test compounds 0-10 µM, relative to cold T4): 0.95
- fibrillogenesis inhibitory potency, in words (TTR variant Y78F): very potent inhibitor

Structure (SMILES): COC(=O)C(CC(=O)OC(C)(C)C)NC(=O)c1cc(-c2ccc(F)cc2F)cc(I)c1O [19b, N-[2’,4’-difluoro-4-hydroxy-5-iodo-[1,1’]-biphenyl-3-carbonyl]-L-aspartic α-methyl ester and β-tert-butyl ester]
- affinity for TTR relative to T4, in words [7]: higher affinity values for TTR than T4
- IC50 (TTR variant Y78F; [8]): 5.8 µM

Structure (SMILES): O=C(O)c1cc(-c2ccc(F)cc2F)ccc1O [1a, 2’,4’-difluoro-4-hydroxy-[1,1’]-biphenyl-3-carboxylic acid, reference compound]
- protein denaturation (unfolding) after 200 h (TTRwt): 60%
- protein denaturation (tetramer dissociation) after 200 h (TTRY78F [1]): 80%
- aggregates seen by TEM (TTRY78F [3]): still allow amyloid precipitates to occur

Structure (SMILES): COC(=O)[C@H](CO)NC(=O)c1cc(-c2ccc(F)cc2F)cc(I)c1O [15b, N-[2’,4’-difluoro-4-hydroxy-5-iodo-[1,1’]-biphenyl-3-carbonyl]-L-serine methyl ester]
- IC50 (TTR variant Y78F; [8]): 7.2 µM

Structure (SMILES): NC(=O)C[C@H](NC(=O)c1cc(-c2ccc(F)cc2F)ccc1O)C(=O)O [20a, N-[2’,4’-difluoro-4-hydroxy-[1,1’]-biphenyl-3-carbonyl]-L-asparagine]
- IC50 (TTR variant Y78F; [8]): > 50 µM

Structure (SMILES): CC(C)C[C@H](NC(=O)c1cc(-c2ccc(F)cc2F)cc(I)c1O)C(=O)O [12b, N-[2’,4’-difluoro-4-hydroxy-5-iodo-[1,1’]-biphenyl-3-carbonyl]-L-leucine]
- IC50 (TTR variant Y78F; [8]): 5 µM

Structure (SMILES): CC(=O)Oc1c(I)cc(-c2ccc(F)cc2F)cc1C(=O)O [7b, 4-Acetoxy-2’,4’-difluoro-5-iodo-[1,1’]-biphenyl-3-carboxylic acid]
- IC50 (TTR variant Y78F; [8]): 4.8 µM

Structure (SMILES): CC(NC(=O)c1cc(-c2ccc(F)cc2F)cc(I)c1O)C(=O)O [9b, N-[2’,4’-difluoro-4-hydroxy-5-iodo-hydroxy-[1,1’]-biphenyl-3-carbonyl]-L-alanine]
- IC50 (TTR variant Y78F; [8]): 5.8 µM

Structure (SMILES): CCOC(=O)[C@H](C)NC(=O)c1cc(-c2ccc(F)cc2F)cc(I)c1O [11b, N-[2’,4’-difluoro-4-hydroxy-5-iodo-[1,1’]-biphenyl-3-carbonyl]-L-alanine ethyl ester]
- affinity for TTR relative to T4, in words [7]: higher affinity values for TTR than T4
- IC50 (TTR variant Y78F; [8]): 5.7 µM

Structure (SMILES): O=C(O)c1ccccc1Nc1cccc(C(F)(F)F)c1 [Flufenamic, reference compound]
- IC50 (TTR variant Y78F; fibrillogenesis inhibition assay, effect of iodination, read-out: Inhibitory efficiency, rough screening (Figure 3, measure not given)): 10.9 µM

Structure (SMILES): COC(=O)C(CC(=O)O)NC(=O)c1cc(-c2ccc(F)cc2F)ccc1O [17a, N-[2’,4’-difluoro-4-hydroxy-[1,1’]-biphenyl-3-carbonyl]-L-aspartic α-methyl ester]
- IC50 (TTR variant Y78F; [8]): > 50 µM

Structure (SMILES): O=C(NC(CO)C(=O)O)c1cc(-c2ccc(F)cc2F)ccc1O (centres unmarked) [14a]
- IC50 (TTR variant Y78F; [8]): > 50 µM

Structure (SMILES): NC(=O)CC(NC(=O)c1cc(-c2ccc(F)cc2F)cc(I)c1O)C(=O)O [20b, N-[2’-,4’-difluoro-4-hydroxy-5-iodo-[1,1’]-biphenyl-3-carbonyl]-L-asparagine]
- IC50 (TTR variant Y78F; [8]): 7.7 µM
